Article PMC3272276 (The Journal of Organic Chemistry, 2010)

Test system: Candida albicans
Assay: Antifungal activity
Type: cell-based

Substance | inhibition of growth of Candida albicans (in words)
mutremdamide A | None of the koshikamides or mutremdamide A inhibited the growth
theonellamide A | antifungal activity of the extracts was traced to the known peptide theonellamide A
